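Exposure lasted 48 hours, with cells grown in 96-well plates and compounds tested at five concentrations. GI50: concentration for 50% inhibition of growth. At the TGI there is no net growth.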 Where a SMILES comes first, the peptide text is derived from it. The star is where a group is joined. Boc = CC(C)(C)OC(=O)*; OtBu = CC(C)(C)O*
What was measured:
Experiment in all cases: DTP human tumour cell line panel, 48 h
[1] = tested on: OVCAR-8 ovarian
[2] = tested on: SK-MEL-5 melanoma
[3] = tested on: LOX IMVI melanoma
[4] = tested on: SNB-75 CNS
[5] = tested on: COLO 205 colon
[6] = tested on: TK-10 renal
[7] = tested on: UACC-62 melanoma
[8] = tested on: SK-MEL-2 melanoma
[9] = tested on: HS 578T breast
[10] = tested on: U251 CNS
[11] = tested on: NCI/ADR-RES ovarian

SMILES	TGI [1] [µM]	TGI [2] [µM]	TGI [3] [µM]	TGI [4] [µM]	TGI [5] [µM]	TGI [6] [µM]	TGI [7] [µM]	TGI [8] [µM]	TGI [9] [µM]	TGI [10] [µM]	TGI [11] [µM]	GI50 [1] [µM]	GI50 [7] [µM]	GI50 [2] [µM]	GI50 [8] [µM]	GI50 [4] [µM]	GI50 [10] [µM]	GI50 [5] [µM]	GI50 [11] [µM]	GI50 [6] [µM]
Cc1[nH]n(C(=O)Cc2ccccc2)c(=O)c1/C=C1\C(=O)C=Cc2ccccc21	> 100	> 100	93	> 100	> 100	> 100	–	–	–	–	–	–	–	–	–	–	–	–	–	–
COC(=O)c1nc2n(n1)-c1ccccc1C(=O)N(Cc1ccccc1)C2	> 100	> 100	> 100	–	> 100	> 100	> 100	> 100	> 100	> 100	> 100	–	–	–	–	–	–	–	–	–
CS(=O)(=O)Sc1ccc(Cl)cc1	21.8	20.2	11.5	12.6	12.7	31.2	–	25.6	–	11.5	–	–	–	–	–	–	–	–	–	–
CC(C)c1cc(C(C)C)c(S(=O)(=O)N/N=C2\CC3CCC2(C)C3(C)C)c(C(C)C)c1 (configuration not stated)	> 100	30.5	–	–	79.3	> 100	> 100	> 100	> 100	> 100	> 100	–	–	–	–	–	–	–	–	–
O=[N+]([O-])c1ccc(-c2ccc([C@H]3CC(c4cc(F)c(Cl)cc4Cl)=NN3)o2)cc1	> 100	32.2	> 100	71.4	–	> 100	> 100	–	> 100	–	90.2	–	–	–	–	–	–	–	–	–
CC(C)(C)OC(=O)CC(NC(=O)OC(C)(C)C)C(=O)NC(Cc1ccccc1)C(N)=O (configuration not stated) (Boc-Asp(OtBu)-Phe-NH2; configuration not given here)	> 100	> 100	> 100	> 100	> 100	> 100	–	> 100	> 100	> 100	> 100	–	–	–	–	–	–	–	–	–
Nc1cc2c(C3OC(CO)C(O)C3O)[nH]nc2c(=S)[nH]1 (configuration not stated)	> 100	> 100	–	> 100	> 100	–	> 100	> 100	–	> 100	–	–	–	–	–	–	–	–	–	–
COc1nc2c(c(=O)[nH]1)N=C(c1ccc([N+](=O)[O-])cc1)CC(c1ccccc1)N2 (configuration not stated)	> 100	> 100	> 100	> 100	> 100	–	> 100	> 100	–	> 100	> 100	–	–	–	–	–	–	–	–	–
O=[N+]([O-])c1cccc(-c2ccc([C@H]3CC(c4ccc(Cl)cc4)=NN3)o2)c1	27.4	32.2	–	48.4	> 100	42.8	49.1	–	> 100	–	76.3	–	–	–	–	–	–	–	–	–
Cc1cccc2c(=O)c3cccc(CC(=O)O)c3oc12	> 100	> 100	> 100	–	> 100	> 100	> 100	> 100	> 100	> 100	> 100	–	–	–	–	–	–	–	–	–
COC(=O)c1c(C(=O)OC)c2ccccn2c1-c1cc(C)cc2c1C(=O)C=CC2=O	14.4	17	–	23.6	13.4	18.4	17.7	17.2	24.2	–	27.8	–	–	–	–	–	–	–	–	–
CCOc1cc(NC(C)=O)ccc1C(=O)NN1C(=O)/C(=C/c2ccc(Cl)cc2)N=C1c1ccccc1	> 100	81.3	> 100	> 100	> 100	> 100	–	> 100	–	> 100	> 100	–	–	–	–	–	–	–	–	–
COc1ccc(CCN2C(=O)C(=O)C(C(=O)c3ccccc3)C2c2ccccc2)cc1OC (configuration not stated)	> 100	> 100	> 100	–	> 100	> 100	> 100	> 100	> 100	> 100	> 100	–	–	–	–	–	–	–	–	–
CSc1cnc2ccccc2c1Sc1cn(C)c2ccccc2c1=O	45	> 100	> 100	46.8	> 100	> 100	> 100	> 100	–	38.6	–	–	–	–	–	–	–	–	–	–
O=C1C/C(=C\c2ccccc2)C(=O)c2ccccc2N1	39.1	36.2	40.8	–	34.8	54.7	40.5	60.6	> 100	–	54.7	–	–	–	–	–	–	–	–	–
CC(C)C1CC(CO)(CNc2nc(N)nc(Cl)c2C=O)C1 (configuration not stated)	8.33	–	3.81	15.4	28	> 100	4.11	3.31	31.3	10.6	23.8	–	–	–	–	–	–	–	–	–
COc1ccc2nc3cc(Cl)ccc3c(NCCCN(C)CCCNc3ccc4ncn5c6ccccc6c(=O)c3c45)c2c1	8.52	4.62	–	7.55	3.66	1.76	7.93	7.23	> 19.5	1.63	> 14.1	–	–	–	–	–	–	–	–	–
CC1=C(C(N)=O)C(c2ccncc2)C(C#N)C(=O)N1 (configuration not stated)	–	> 100	> 100	> 100	> 100	> 100	> 100	> 100	> 100	> 100	–	–	–	–	–	–	–	–	–	–
COc1ccc(N(c2ccc(C#N)cc2)c2ccc(C#N)cc2)cc1	> 100	> 100	> 100	> 100	> 100	> 100	> 100	> 100	> 100	> 100	–	–	–	–	–	–	–	–	–	–
NC(Cc1c2ccccc2cc2ccccc12)C(=O)O (configuration not stated)	> 100	> 100	> 100	94.9	> 100	> 100	> 100	> 100	–	> 100	> 100	–	–	–	–	–	–	–	–	–
CCO/C=N\C1=C(C#N)SC2=N/C(=C\c3ccco3)C(=O)N21	> 100	> 100	> 100	> 100	> 100	> 100	–	> 100	> 100	> 100	> 100	–	–	–	–	–	–	–	–	–
c1ccc2sc(C3(N4CCCCCC4)CCCCC3)cc2c1	> 100	33.3	43.4	62.1	30	53.4	45.7	–	44.7	35	55.2	–	–	–	–	–	–	–	–	–

SMILES	TGI [1] [µM]	TGI [2] [µM]	TGI [3] [µM]	TGI [4] [µM]	TGI [5] [µM]	TGI [6] [µM]	TGI [7] [µM]	TGI [8] [µM]	TGI [9] [µM]	TGI [10] [µM]	TGI [11] [µM]	GI50 [1] [µM]	GI50 [7] [µM]	GI50 [2] [µM]	GI50 [8] [µM]	GI50 [4] [µM]	GI50 [10] [µM]	GI50 [5] [µM]	GI50 [11] [µM]	GI50 [6] [µM]
CC(C(=O)NCNC(=O)c1ccccc1)C(=O)NCc1ccccc1 (configuration not stated)	> 100	> 100	–	> 100	> 100	> 100	> 100	> 100	> 100	> 100	> 100	–	–	–	–	–	–	–	–	–
CC12CCC(C(=Nc3ccc([N+](=O)[O-])cc3)C1=O)C2(C)C (configuration not stated)	55.3	90.7	31.3	–	44.6	59	> 100	49.2	–	97.6	63.5	–	–	–	–	–	–	–	–	–
CC1CC(=O)C(CC(=O)O)[C@H]1C(C(=O)C(=O)Nc1cc(Cl)ccc1Cl)[N+](=O)[O-] (some centres not stated)	> 100	> 100	> 100	> 100	> 100	> 100	> 100	–	–	> 100	–	–	–	–	–	–	–	–	–	–
C/C(=C/C(=O)N(C)c1ccccc1Cl)O[Si](C(C)C)(C(C)C)C(C)C	47	30.8	33.2	> 100	32.6	> 100	–	–	–	38.7	39.6	–	–	–	–	–	–	–	–	–
COc1ccc(C2OC2C(=O)C23CC4CC(CC(C4)C2)C3)cc1 (configuration not stated)	> 100	> 100	> 100	–	–	> 100	49	–	50.4	> 100	> 100	–	–	–	–	–	–	–	–	–
COC(=O)[C@@H](N1C(=O)c2ccccc2C1=O)C1(C)CC(Cl)=NO1 (some centres not stated)	37	> 100	–	35.9	> 100	82.4	> 100	> 100	75.3	77.2	68.2	–	–	–	–	–	–	–	–	–
CC(=O)O[C@H]1CC[C@@]2(C)C(=CC[C@@H]3[C@@H]2CC[C@]2(C)C(=O)/C(=C\c4ccccc4)C[C@@H]32)C1	> 100	> 100	> 100	> 100	> 100	> 100	> 100	> 100	–	> 100	> 100	–	–	–	–	–	–	–	–	–
N#Cc1nc(CCC(C(=O)O)N2C(=O)c3ccccc3C2=O)oc1N (configuration not stated)	> 100	> 100	–	> 100	> 100	> 100	> 100	> 100	> 100	> 100	> 100	–	–	–	–	–	–	–	–	–
COC(=O)C#CC1(O)C=CC(=O)C=C1	15.4	–	1.9	18.1	–	5.22	2.64	7.64	16.1	–	> 100	–	–	–	–	–	–	–	–	–
COc1ccc2c(c1)SC1=Nc3sc4cc(OC)ccc4[n+]3CN12	> 100	15.6	–	–	11.6	> 100	42.4	65.3	> 100	63.6	> 100	–	–	–	–	–	–	–	–	–
O=c1[nH]nc(Nc2ccc(Cl)cc2)c2nnn(-c3ccc([N+](=O)[O-])cc3)c12	48	22.7	53.1	> 100	49.7	46.7	–	82.2	–	46	> 100	–	–	–	–	–	–	–	–	–
O=C(O)OC12CCCCCC1C(=O)C1CCCCC12 (configuration not stated)	> 100	> 100	> 100	> 100	> 100	> 100	> 100	> 100	–	> 100	–	–	–	–	–	–	–	–	–	–
O[C@@H]1CCCCN1Cc1cc2cc3c(cc2c2cc(OCc4ccccc4)ccc12)OCO3	3.03	3.09	–	3.08	2.66	4.05	3.46	3.16	–	2.95	3.47	1.19	1.89	1.62	1.7	1.66	1.52	1.28	1.5	2.08
CC(=O)OC(C(=O)NNC(=O)OC(C)(C)C)c1ccccc1 (configuration not stated)	> 100	> 100	–	> 100	> 100	> 100	> 100	> 100	> 100	> 100	> 100	–	–	–	–	–	–	–	–	–
CCCCCCCC(=O)N1C2CC3CCC2(CS1(=O)=O)C3(C)C (configuration not stated)	> 100	34.4	–	> 100	41.2	> 100	55.5	–	> 100	69.9	–	–	–	–	–	–	–	–	–	–
CC(=O)Nc1ccc2c3c(cc(O)c2c1)N(C(=O)CCCCCCC(=O)Nc1ccc2c4c(cc(O)c2c1)N(C(=O)OC(C)(C)C)CC4CCl)CC3CCl (configuration not stated)	> 32.9	0.0783	> 33.4	0.284	0.284	–	0.219	0.0593	–	11	> 72	–	–	–	–	–	–	–	–	–
N#CC(C#N)=CNC(=S)Nc1ccc(S(=O)(=O)Nc2nccs2)cc1	> 100	> 100	> 100	> 100	> 100	> 100	> 100	> 100	–	> 100	> 100	–	–	–	–	–	–	–	–	–
CC(=O)OCCn1c(Cc2ccc(Cl)cc2)nn(C(C)=O)c1=O	> 100	> 100	> 100	–	> 100	> 100	> 100	> 100	> 100	> 100	> 100	–	–	–	–	–	–	–	–	–
COc1cc(N(CCC#N)CCC#N)ccc1/C(N=Nc1cccc([N+](=O)[O-])c1)=N\NC(=O)c1ccc(C)cc1	> 100	> 100	> 100	–	> 100	> 100	> 100	> 100	> 100	> 100	> 100	–	–	–	–	–	–	–	–	–
CN(C)CCC(C#N)(c1ccccc1)c1ccccc1	> 100	51.1	–	> 100	> 100	> 100	> 100	> 100	> 100	> 100	> 100	–	–	–	–	–	–	–	–	–
CCc1c(N=[N+]=[N-])c2ccccc2oc1=O	> 100	–	> 100	> 100	> 100	> 100	> 100	–	> 100	> 100	> 100	–	–	–	–	–	–	–	–	–

— PubChem BioAssay (NCI)
